Source: patent publication US20240082281A1, “ANTI-INFLAMMATORY PHYTONUTRIENTS FOR USE IN THE TREATMENT OR PREVENTION OF SYNOVITIS” (SOCIÉTÉ DES PRODUITS NESTLÉ S.A., priority 2013, published 2024)

Experiments:
[1] = test system: Dunkin-Hartley guinea pigs; experiment: Spontaneous osteoarthritis in Dunkin-Hartley guinea pigs: histological OA score and synovial score (OARSI); type: in vivo, guinea pig; conditions: in diet 31 weeks (oleuropein 0.025%, rutin 0.5%, curcumin 0.25%); week 35; vs control group; p<0.01
Procedure: An in vivo study of spontaneous development of osteoarthritis in Dunkin-Hartley guinea pigs was performed. Sixty-five male Dunkin-Hartley guinea-pigs aged 3 weeks were obtained from Charles River Laboratories (Paris). Animals were housed 5 per cage in solid bottom cages and fed with standard guinea-pig diet and water ad libitum. All animals were allowed one week for acclimatization to housing conditions prior to phytonutrients administration. PVC pipes were added to the cages to improve housing conditions and minimize stress.
Substantially purified oleuropein (>90%) was purchased from Extrasynthese (Genay, France). Substantially purified rutin (>94%) was purchased from Sigma-Aldrich (Buchs, Switzerland).
Oleuropein, rutin and curcumin were integrated in the diet. […] Food intake was controlled at W9, W15, W21, W26 and W34 by weighing daily quantities of food added and remaining. […]
Paraffin embedded right knees were cut with a microtome (Leica) in 6 μm sections, in the central area not covered by meniscus, following the Cushin plane, as recommended by OARSI. […] Each compartment of the section (tibial median, tibial lateral, femoral median and femoral lateral) was scored by two blinded trained experts following OARSI recommendation and to assess the global cartilage score, each compartment score was added. […]
The results (mean±SD) were calculated for each parameter. […]

[2] = test system: PGE2; experiment: PGE2 in guinea pig serum by competitive ELISA; type: in vivo; conditions: in diet 31 weeks; week 35; vs control group
Procedure: 6 h fasting blood was obtained in the morning, under ketamine/xylazine tranquilization, at the superficial veins at the ears, each 6 weeks: W4 (=TO), W10, W16, W22, W28. At W35, blood was collected by intracardiac puncture just before euthanasia, under general anesthesia.
PGE2 was measured in guinea pig serum using a competitive ELISA kit (Arbor Assays, USA).
The results (mean±SD) were calculated for each parameter. Following a normality test, a parametric ANOVA with Dunnett's post-test or Pearson correlation was performed on all the experiments. *p<0.05; **<0.01; ***p<0.001.

[3] = test system: ADAMTS-5; experiment: ADAMTS-5 mRNA expression (real-time PCR, relative to GAPDH) in bovine primary chondrocytes in alginate beads; type: cell-based, Bos Taurus; conditions: 1.5 μM each, 3 days
Procedure: (§1) An in vitro study of bovine primary chondrocytes in alginate beads was performed. Substantially purified oleuropein (>98%) was purchased from Extrasynthese (Genay, France). Substantially purified hydroxytyrosol (>98%) was purchased from Extrasynthese (Genay, France). Substantially purified quercetin (>97%) was purchased from HWI Analytik GmbH (Ruelzheim, Germany).
(§2) The foot of a young cow was washed to remove soil. The skin was removed from the foot. The articulation was opened transversally. Intra articular ligaments were transected. The opened articulation was washed with phosphate buffered saline. With a scalpel blade, full thickness slices of cartilage were dissected out and collected in DMEM high glucose with 10 mM Hepes and 1% Penicillin-Streptomycin. Slices of cartilage were washed in DMEM high glucose with 10 mM Hepes and 1% Penicillin-Streptomycin. […]
(§3) Total RNA was isolated from a pool of 40 beads and isolated using RNeasy kit from Qiagen. cDNA was obtained by reverse transcription of RNA with the Primescript 1st strand cDNA Synthesis kit from Takara. mRNA expression of ADAMTS-5, COX-2, MMP-13 and GAPDH were quantified in real-time PCR (SYBR Green).
(§4) Data were expressed as fold change in gene expression compared to negative control (cells cultured in complete medium).
(§5) Data was expressed as median±S.E.Median (2 experiments of 3 replicates each). […]

[4] = test system: COX-2; experiment: COX-2 mRNA expression (real-time PCR, relative to GAPDH) in bovine primary chondrocytes in alginate beads; type: cell-based, Bos Taurus; conditions: 1.5 μM each, 3 days
Procedure: as §1, §2, §3, §4, §5

[5] = test system: MMP-13; experiment: MMP-13 mRNA expression (real-time PCR, relative to GAPDH) in bovine primary chondrocytes in alginate beads; type: cell-based, Bos Taurus; conditions: 1.5 μM each, 3 days
Procedure: as §1, §2, §3, §4, §5

[6] = test system: Primary osteoblasts from the calvaria of newborn Wistar rats; experiment: Alkaline phosphatase (ALP) activity of primary osteoblasts; type: cell-based, rat; conditions: day 15; 1 μM OLP, 1 μM HTy, 10^−9 M 1,25(OH)2D3; vs C−
Procedure: Alkaline phosphatase activity of osteoblasts and potentiation of effect by vitamin D were investigated. Primary osteoblasts were isolated from the calvaria of newborn Wistar rats by enzymatic digestion as described by […] et al. in 2004. During all experiments, cells were maintained in α-minimal essential medium with 10% heat-inactivated fetal bovine serum and 1% penicillin/streptomycin under conditions of 5% CO2 and 37° C. Cells were seeded on Coll-1-coated 96-well plates at a density of 3500 cells/well or in 24-well plates at a density of 3×10^4 cells/well and cultured for 2 days in α-MEM to reach confluence. Cells were then exposed to different conditions: minimal medium (C-), minimal medium containing 50 μg/ml ascorbic acid, 5 mM β-glycerophosphate (C+; optimized medium), and minimal medium supplemented with 1 μM oleuropein (OLP) and/or 1 μM hydroxytyrosol (HTy) and/or 10^-9 M 1,25 dihydroxivitamin […] dissolved in dimethylsulfoxide (DMSO) and 1,25(OH)2D3 was dissolved in ethanol. […] Enzymatic activity of alkaline phosphatase (ALP) was measured kinetically on Treatment Days 0, 5, 9, 12 and 15. […] Absorbance was measured at 405 nm and 30° C., and every 2 min 30 s for 30 min using a VarioSklan Flash microplate reader. ALP activity was expressed as micromoles of p-NPP per hour per milligram of protein. […] Data were expressed as mean±SEM. […]. […]

[7] = disease conditions (presence of IL1a 10 ng/ml), vs IL1a
[8] = normal conditions (absence of IL1a), vs CTL−

Compound: COc1cc(/C=C/C(=O)CC(=O)/C=C/c2ccc(O)c(OC)c2)ccc1O [curcumin]
- total OA score (histological cartilage score) [1]: decreasing cartilage degradation and histological OA score
- PGE2 levels in plasma/serum [2]: only non-significant effect

Compound: O=c1c(O)c(-c2ccc(O)c(O)c2)oc2cc(O)cc(O)c12 [quercetin]
- ADAMTS-5 mRNA expression relative to GAPDH [3, 7]: decrease expression of ADAMTS-5
- ADAMTS-5 mRNA expression relative to GAPDH [3, 8]: decrease expression of ADAMTS-5
- COX-2 mRNA expression relative to GAPDH [4, 7]: decrease expression of COX-2
- COX-2 mRNA expression relative to GAPDH [4, 8]: can reduce expression of COX-2
- MMP-13 mRNA expression relative to GAPDH [5, 7]: decrease expression of MMP-13
- MMP-13 mRNA expression relative to GAPDH [5, 8]: decrease expression of MMP-13

Compound: C=C1/C(=C\C=C2/CCC[C@]3(C)[C@@H]([C@H](C)CCCC(C)(C)O)CC[C@@H]23)C[C@@H](O)C[C@@H]1O [vitamin D3, 1,25 dihydroxivitamin D3]
- alkaline phosphatase (ALP) activity / osteoblast activity [6]: small but statistically significant increase
